In US20150353495A1 (PORTOLA PHARMACEUTICALS, INC., priority 2010, published 2015):

Key:
Format in all cases: biochemical
JAK3 = biological target: T1, JAK3 (Homo sapiens, UniProt P52333); assay: Z'-LYTE kinase assay JAK3
T1 construct: 5 μl of catalytic domain recombinant Kinase enzyme+Tyr peptide substrate (Invitrogen, CA); purchased Invitrogen
Procedure, shortened: (§1)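 Z′-LYTE FRET, Tyr6 peptide, recombinant catalytic domain + ATP, 1 h RT, 1% DMSO final, duplicates; protease development 1 h RT; fluorescence read.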

JAK1 = biological target: T2, JAK1 (Homo sapiens, UniProt P23458); assay: Z'-LYTE kinase assay JAK1
T2 construct: 5 μl of catalytic domain recombinant Kinase enzyme+Tyr peptide substrate (Invitrogen, CA); purchased Invitrogen
Procedure, shortened: as §1

TYK2 = biological target: T3, TYK2 (Homo sapiens, UniProt P29597); assay: Z'-LYTE kinase assay TYK2
T3 construct: 5 μl of catalytic domain recombinant Kinase enzyme+Tyr peptide substrate (Invitrogen, CA); purchased Invitrogen
T3 sequence (P29597 897-1176 limits assumed): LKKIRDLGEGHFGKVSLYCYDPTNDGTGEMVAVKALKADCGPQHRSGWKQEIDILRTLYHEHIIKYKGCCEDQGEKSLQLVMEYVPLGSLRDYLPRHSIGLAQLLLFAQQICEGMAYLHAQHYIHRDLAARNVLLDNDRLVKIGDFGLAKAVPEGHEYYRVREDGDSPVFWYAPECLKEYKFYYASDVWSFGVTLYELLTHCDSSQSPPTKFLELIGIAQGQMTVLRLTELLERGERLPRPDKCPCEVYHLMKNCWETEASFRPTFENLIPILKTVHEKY
Protocol: JAK and TYK2 tyrosine phosphorylation activity is measured using the Z′-LYTE™ Technology developed by Invitrogen Corporation (Carlsbad, Calif.). For JAK1, JAK2 and JAK3 the Z′-LYTE™ Kinase Assay Kit-Tyr6 Peptide (part number PV4122) was used. For TYK2 the Z′-LYTE™ Kinase Assay Kit-Tyr6 Peptide (part number PV3192) was used. The Z′-LYTE™ biochemical assay employs a fluorescence resonance energy transfer (FRET) coupled-enzyme format and is based on the differential sensitivity of phosphorylated and non-phosphorylated peptides to proteolitic cleavage. The assay uses a synthetic peptide substrate that is labelled with a donor fluorophore (coumarin) and an acceptor fluorophore (fluorescein) that make up a FRET pair. In the primary reaction (the Kinase Reaction), the kinase transfers the γ-phosphate of ATP to a single tyrosine residue on the substrate, while the presence of a kinase inhibitor in the primary reaction suppresses phosphorylation. In the secondary reaction (the Development Reaction), a site-specific protease (the Development Reagent) is added. The development buffer quenches the Kinase Reaction, while the protease recognizes and cleaves non-phosphorylated Z′-LYTE™ peptide substrate. Cleavage disrupts FRET between the donor and acceptor fluorophores on the non-phosphoryleted substrate, while uncleaved, phosphorylated substrate maintains FRET.
To test the ability of candidate molecules to inhibit JAK tyrosine phosphorylation activity, molecules are reconstituted in 100% DMSO and serially diluted 1:10 in polypropylene v-bottom microtiter plates. The candidate molecules are then diluted 1:25 into kinase buffer and 2.5 μl transferred into duplicate wells of a 384 well low volume black microtiter assay plate (Corning, USA). The final DMSO concentration in the assay is 1%. The kinase reaction contains 2.5 μl of a candidate molecule, 5 μl of catalytic domain recombinant Kinase enzyme+Tyr peptide substrate (Invitrogen, CA) and 2.5 μl ATP (Invitrogen, CA). The kinase reaction is allowed to procede for 1 hour at room temperature. The protease reaction is initiated by the addition of 5 μl Development Reagent (Invitrogen, CA). After 1 hour incubation at room temperature the fluorescence is measured using a FlexStation plate reader (Molecular Devices, Sunnyvale, Calif.). The reader settings used are as follows: Fluorescence mode, endpoint, top read, excitation 400 nm, emission 445 nm and 520 nm, Auto Cutoff 435 nm and 515 nm, PMT sensitivity high, 6 reads per well Inhibition of JAK kinase activity is calculated as the percent phosphorylation of substrate in the presence of inhibitor compared to the percent phosphorylation of substrate in the absence of inhibitor. IC50's were derived using Xlfit 4.3 (IDBS, UK), 4 parameter logistic model 205: Y=(A+4B-A)/(1+((C/x)AD)))).

JAK2 = biological target: T4, JAK2 (Homo sapiens, UniProt O60674); assay: Z'-LYTE kinase assay JAK2
T4 construct: 5 μl of catalytic domain recombinant Kinase enzyme+Tyr peptide substrate (Invitrogen, CA); purchased Invitrogen
Procedure, shortened: as §1

T1 sequence (P52333 822-1111 limits assumed): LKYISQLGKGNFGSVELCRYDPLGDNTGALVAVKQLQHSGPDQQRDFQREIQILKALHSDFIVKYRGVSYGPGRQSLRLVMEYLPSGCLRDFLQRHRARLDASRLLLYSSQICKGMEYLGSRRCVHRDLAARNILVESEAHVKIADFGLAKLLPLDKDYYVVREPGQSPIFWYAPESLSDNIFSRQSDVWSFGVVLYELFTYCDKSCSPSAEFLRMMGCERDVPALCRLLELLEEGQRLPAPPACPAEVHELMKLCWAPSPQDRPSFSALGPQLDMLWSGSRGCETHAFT
T2 sequence (P23458 875-1153 limits assumed): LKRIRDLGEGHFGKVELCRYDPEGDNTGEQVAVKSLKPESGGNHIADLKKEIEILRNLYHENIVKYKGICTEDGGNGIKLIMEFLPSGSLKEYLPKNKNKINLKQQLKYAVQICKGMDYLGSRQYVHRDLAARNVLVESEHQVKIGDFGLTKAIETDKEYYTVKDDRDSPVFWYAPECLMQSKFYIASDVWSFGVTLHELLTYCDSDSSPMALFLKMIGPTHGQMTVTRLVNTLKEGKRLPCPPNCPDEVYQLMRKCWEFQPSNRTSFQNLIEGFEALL
T4 sequence (O60674 849-1124 limits assumed): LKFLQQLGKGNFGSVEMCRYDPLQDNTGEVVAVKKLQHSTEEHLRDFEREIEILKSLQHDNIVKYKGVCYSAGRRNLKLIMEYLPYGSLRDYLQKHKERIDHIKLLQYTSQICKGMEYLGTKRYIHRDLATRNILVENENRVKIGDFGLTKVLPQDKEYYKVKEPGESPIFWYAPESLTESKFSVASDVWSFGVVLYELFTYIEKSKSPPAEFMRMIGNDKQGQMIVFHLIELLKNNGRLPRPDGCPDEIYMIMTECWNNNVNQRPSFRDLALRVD

Compound	IC50 (JAK3) [nM]	IC50 (JAK1) [nM]	IC50 (TYK2) [nM]	IC50 (JAK2) [nM]
CC(=O)Nc1cccc(Nc2nc(N[C@H](C)c3ccccc3)c(C(N)=O)cc2F)c1 [Example 20, (R)-6-(3-acetamidophenylamino)-5-fluoro-2-(1-phenylethylamino)nicotinamide]	> 1000	> 1000	> 1000	> 1000
CC(=O)Nc1cccc(Nc2nc(N)c(C(N)=O)cc2F)c1 [Example 21, 6-(3-acetamidophenylamino)-2-amino-5-fluoronicotinamide]	> 1000	> 1000	> 1000	> 1000
NC(=O)c1cc(F)c(Nc2cccc(-n3nccn3)c2)nc1NC1CCCC1 [Example 22, 6-(3-(2H-1,2,3-triazol-2-yl)phenylamino)-2-(cyclopentylamino)-5-fluoronicotinamide]	100 to 1000	> 1000	> 1000	> 1000
NC(=O)c1cc(F)c(Nc2cccc(-n3nccn3)c2)nc1NCc1ccccc1 [Example 23, 6-(3-(2H-1,2,3-triazol-2-yl)phenylamino)-2-(benzylamino)-5-fluoronicotinamide]	> 1000	> 1000	> 1000	> 1000
NC(=O)c1cc(F)c(Nc2cccc(-n3nccn3)c2)nc1N [Example 24, 6-(3-(2H-1,2,3-triazol-2-yl)phenylamino)-2-amino-5-fluoronicotinamide]	> 1000	> 1000	> 1000	> 1000
NC(=O)c1cc(F)c(Nc2ccc(OCCN3CCCC3)cc2)nc1NC1CCCC1 [Example 25, 2-(cyclopentylamino)-5-fluoro-6-(4-(2-(pyrrolidin-1-yl)ethoxy)phenylamino)nicotinamide]	> 1000	> 1000	> 1000	> 1000
NC(=O)c1cc(F)c(Nc2ccc(OCCN3CCCC3)cc2)nc1NCc1ccccc1 [Example 26, 2-(benzylamino)-5-fluoro-6-(4-(2-(pyrrolidin-1-yl)ethoxy)phenylamino)nicotinamide]	> 1000	> 1000	> 1000	> 1000
C[C@@H](Nc1nc(Nc2ccc(OCCN3CCCC3)cc2)c(F)cc1C(N)=O)c1ccccc1 [Example 27, (R)-5-fluoro-2-(1-phenylethylamino)-6-(4-(2-(pyrrolidin-1-yl)ethoxy)phenylamino)nicotinamide]	> 1000	> 1000	> 1000	> 1000
CC(=O)N1CCN(c2ccc(Nc3cc(NCCc4ccccc4)c(C(N)=O)cn3)cc2)CC1 [Example 29]	10 to 100	> 1000	100 to 1000	100 to 1000
CC(C)(C)OC(=O)N1CCC(c2ccc(Nc3cc(NCc4cccc(F)c4)c(C(N)=O)cn3)cc2)CC1 [Example 77, tert-butyl 4-(4-(5-carbamoyl-4-(3-fluorobenzylamino)pyridin-2-ylamino)phenyl)piperidine-1-carboxylate]	100 to 1000	> 1000	> 1000	> 1000
CN(C)C(=O)c1ccc(Nc2cc(NCc3c(F)cccc3F)c(C(N)=O)cn2)cc1 [Example 102, 4-(2,6-difluorobenzylamino)-6-(4-(dimethylcarbamoyl)phenylamino)nicotinamide]	1 to 10	100 to 1000	10 to 100	10 to 100
CC(=O)N1CCN(c2ccc(Nc3cc(NC4(c5ccccc5)CC4)c(C(N)=O)cn3)cc2)CC1 [Example 126, 6-(4-(4-acetylpiperazin-1-yl)phenylamino)-4-(1-phenylcyclopropylamino)nicotinamide]	1 to 10	> 1000	> 1000	100 to 1000
CC(=O)N1CCN(c2ccc(Nc3cc(NC4(c5ccccc5F)CC4)c(C(N)=O)cn3)cc2)CC1 [Example 130, 6-(4-(4-acetylpiperazin-1-yl)phenylamino)-4-(1-(2-fluorophenyl)cyclopropylamino)nicotinamide]	1 to 10	100 to 1000	100 to 1000	10 to 100
NC(=O)c1cnc(Nc2ccc(C3CCOCC3)cc2)cc1NCc1cccc(F)c1 [Example 143, 4-(3-fluorobenzylamino)-6-(4-(tetrahydro-2H-pyran-4-yl)phenylamino)nicotinamide]	10 to 100	> 1000	> 1000	> 1000
CCC(=O)N1CCC(c2ccc(Nc3cc(NCc4cc(F)ccc4F)c(C(N)=O)cn3)cc2)CC1 [Example 149, 4-(2,5-difluorobenzylamino)-6-(4-(1-propionylpiperidin-4-yl)phenylamino)nicotinamide]	1 to 10	100 to 1000	100 to 1000	10 to 100
CCC(=O)N1CCC(c2ccc(Nc3cc(NCc4cccnc4)c(C(N)=O)cn3)cc2)CC1 [Example 187, 6-(4-(1-propionylpiperidin-4-yl)phenylamino)-4-(pyridin-3-ylmethylamino)nicotinamide]	10 to 100	100 to 1000	100 to 1000	100 to 1000
CCC(=O)N1CCC(c2ccc(Nc3cc(NCc4cncc(F)c4)c(C(N)=O)cn3)cc2)CC1 [Example 188, 4-((5-fluoropyridin-3-yl)methylamino)-6-(4-(1-propionylpiperidin-4-yl)phenylamino)nicotinamide]	1 to 10	100 to 1000	100 to 1000	10 to 100
CCC(=O)N1CCC(c2ccc(Nc3cc(NCC4(O)CCCC4)c(C(N)=O)cn3)cc2)CC1 [Example 193, 4-((1-hydroxycyclopentyl)methylamino)-6-(4-(1-propionylpiperidin-4-yl)phenylamino)nicotinamide]	10 to 100	> 1000	100 to 1000	100 to 1000
CCC(=O)N1CCC(c2ccc(Nc3cc(NCc4cc(F)cc(F)c4)c(C(N)=O)cn3)cc2)CC1 [Example 195, 4-(3,5-difluorobenzylamino)-6-(4-(1-propionylpiperidin-4-yl)phenylamino)nicotinamide]	1 to 10	> 1000	> 1000	10 to 100
CCC(=O)N1CCC(c2ccc(Nc3cc(NCc4cccc(F)c4F)c(C(N)=O)cn3)cc2)CC1 [Example 196, 4-(2,3-difluorobenzylamino)-6-(4-(1-propionylpiperidin-4-yl)phenylamino)nicotinamide]	1 to 10	100 to 1000	100 to 1000	10 to 100
CCC(=O)N1CCC(c2ccc(Nc3cc(NCc4cccs4)c(C(N)=O)cn3)cc2)CC1 [Example 197, 6-(4-(1-propionylpiperidin-4-yl)phenylamino)-4-(thiophen-2-ylmethylamino)nicotinamide]	1 to 10	100 to 1000	100 to 1000	100 to 1000
CCC(=O)N1CCC(c2ccc(Nc3cc(NCc4ccccc4)c(C(N)=O)cn3)cc2)CC1 [Example 198, 4-(benzylamino)-6-(4-(1-propionylpiperidin-4-yl)phenylamino)nicotinamide]	1 to 10	> 1000	100 to 1000	100 to 1000
CCC(=O)N1CCC(c2ccc(Nc3cc(N[C@H](C)c4ccccc4)c(C(N)=O)cn3)cc2)CC1 [Example 199, (R)-4-(1-phenylethylamino)-6-(4-(1-propionylpiperidin-4-yl)phenylamino)nicotinamide]	10 to 100	> 1000	> 1000	100 to 1000
